# Experimental data: patent publication US8969405B2, “Anticancer compounds and methods of making and using same” (St. Jude Children's Research Hospital, priority 2008, dated 2015)
# Assays:
# [1] = system: JeKo-1 mantle cell lymphoma cell line; assay: In vitro cytotoxicity analysis (XTT), 72-hour exposure; type: cell-based; details: Homo sapiens, JEKo1 cells
# Experimental: (§1) Briefly, cell lines were seeded at various cell densities depending on the cell type.
# (§2) Tables 1-3 display cytotoxicity data for exemplary compounds following a 72-hour exposure.
# [2] = system: PC-3 prostate cancer cell line; assay: as above; type: cell-based; details: Homo sapiens, PC3 cells
# Experimental: as §1, §2
# [3] = Stability study in buffer solution by HPLC; type: physicochemical; details: 100 μM in PBS buffer and DMSO (2:1)
# Experimental: Stability studies were performed for exemplary compounds 48 and 15. A 100 μM solution of compound 48 was prepared in buffer (PBS, pH 7.4) and warfarin was used as an internal standard. A sample was injected into a HPLC periodically starting at day 0 and ending at about 6 weeks to find out the stability of compound 48 in PBS solution. […] After 6 weeks, 58% of compound 48 remained in the buffer solution.
# [4] = system: NOD/SCID mice; assay: Mouse maximum tolerated dose (MTD) study; type: in vivo; details: for fatality: daily for five days, three mice per group
# Experimental: The mice were monitored for one week following compound administration. […] There was one fatality in the IP 25 mg/kg and one in the IV 50 mg/kg groups.
# [5] = system: JeKo-1 mantle cell lymphoma tumors; assay: In vivo efficacy study, JeKo-1 tumor-bearing mice
# Experimental: Arrows indicate the dosing schedule. The data are represented as mean±SEM.
# Studies were carried out to determine whether the above doses were capable of inhibiting tumor growth in mice (FIG. 4). […] A widely used criterion for determining antitumor activity is tumor growth inhibition (T/C). This value is calculated by dividing the median tumor volumes of treated mice by the median volumes in control mice.
# [6] = system: JVM-2 mantle cell lymphoma cell line; assay: In vitro cytotoxicity analysis (XTT), 72-hour exposure; type: cell-based; details: Homo sapiens, JVM-2 cells
# Experimental: as §1, §2
# [7] = system: WiDr colorectal cancer cell line; assay: as above; type: cell-based; details: Homo sapiens, read-out: Cytotoxicity IC50
# Experimental: as §1
# [8] = system: experimental tumors in mice; details: reported, Nakajima et al. 1996; cited from earlier work
# [9] = system: cell cycle; details: reported in the literature; cited from earlier work
SMILES,IC50 [1] [nM],IC50 [2] [nM],IC50 [6] [nM],IC50 [7] [nM],effect on the cell cycle [9],also measured
"CC(/C=C/[C@@H]1C[C@]2(CO2)CC(C)(C)O1)=C\C[C@H]1CC[C@@H](NC(=O)/C=C\[C@H](C)OC(=O)C(C)C)CC1 [Compound 15, (S,Z)-5-((1R,4R)-4-((2E,4E)-5-((3R,5S)-7,7-dimethyl-1,6-dioxaspiro[2.5]octan-5-yl)-3-methylpenta-2,4-dienyl)cyclohexylamino)-5-oxopent-3-en-2-yl isobutyrate]",40,1900,–,–,–,"compound remaining in the buffer ([3]; after 6 weeks): 53%; half-life at 100 μM ([3]; read-out: calculated half life (converted)): 50.6 days; fatality ([4]; IP 25 mg/kg group): one; fatality ([4]; IV 50 mg/kg group): one; blood cell counts in treated versus vehicle-only mice ([4]; NOD/SCID mice, 5-50 mg/kg daily for five days, IV and IP): No significant differences; weight loss ([4]; NOD/SCID mice, 5-50 mg/kg daily for five days, IV and IP, monitored one week after dosing): No significant weight loss; total necropsies, organ histologies ([4]; NOD/SCID mice, treatment and vehicle-only groups): no significant toxicities; fatalities or weight loss in efficacy study ([5]; 5, 10, 25, or 50 mg/kg IV daily for five consecutive days): No fatalities or significant weight loss; tumor volumes compared to vehicle-treated mice ([5]; 10, 25, or 50 mg/kg IV daily for five consecutive days from day 4): statistically significant decreases"
"CC(/C=C/[C@@H]1C[C@]2(CO2)CC(C)(C)O1)=C\C[C@H]1CC[C@@H](NC(=O)/C=C\[C@H](C)OC(=O)N2CCN(C)CC2)CC1 [Compound 26, (S,Z)-5-((1R,4R)-4-((2E,4E)-5-((3R,5S)-7,7-dimethyl-1,6-dioxaspiro[2.5]octan-5-yl)-3-methylpenta-2,4-dienyl)cyclohexylamino)-5-oxopent-3-en-2-yl 4-methylpiperazine-1-carboxylate]",> 500,> 2500,> 500,> 500,–,–
"CC(/C=C/[C@@H]1C[C@]2(CO2)CC(C)(C)O1)=C\C[C@H]1CC[C@@H](NC(=O)/C=C\[C@H](C)OC(=O)N2CCN(CCO)CC2)CC1 [Compound 27, (S,Z)-5-((1R,4R)-4-((2E,4E)-5-((3R,5S)-7,7-dimethyl-1,6-dioxaspiro[2.5]octan-5-yl)-3-methylpenta-2,4-dienyl)cyclohexylamino)-5-oxopent-3-en-2-yl 4-(2-hydroxyethyl)piperazine-1-carboxylate]",> 500,> 2500,> 500,> 1250,–,–
CC(=O)O[C@@H](C)/C=C\C(=O)N[C@@H]1C[C@H](C)[C@H](C/C=C(C)/C=C/[C@H]2O[C@](C)(O)C[C@@]3(CO3)[C@@H]2O)O[C@@H]1C [FR901464],–,–,–,–,cell cycle arrest at the G1 and G2/M phases,activity in in vivo cancer animal models [8]: showed activity
CC[C@H](O)[C@@H](C)[C@H]1O[C@@H]1C[C@H](C)/C=C/C=C(\C)[C@H]1OC(=O)C[C@H](O)CC[C@@](C)(O)[C@@H](OC(C)=O)/C=C/[C@@H]1C [pladienolide],–,–,–,–,cell cycle arrest at the G1 and G2/M phases,–
